Experimental findings from patent US20250313546A1, “NUCLEIC ACID BINDERS” (UNIVERSITY OF STRATHCLYDE, priority 2022, published 2025) are described below.

Each structure is given as a SMILES string. Converted amounts (≈) assume the structure as drawn.

The subject of test [1] is Staphylococcus aureus (ATCC 43300). The test is described as follows: Antibacterial MIC, broth microdilution (CLSI). Type of test: cell-based. To be noted: for MIC80: Staphylococcus aureus, ATCC43300, read-out: MIC80 S. aureus. On the technique in general: Broth dilution looks for growth in wells or tubes with falling amounts of substance.
The subject of test [2] is Enterococcus faecalis (ATCC 51299). The test is described as follows: Antibacterial MIC, broth microdilution (CLSI). To be noted: for MIC80: Enterococcus faecalis, ATCC51299, read-out: MIC80 E. faecalis. Type of test: cell-based.
In test [3] the test system is Escherichia coli (ATCC 25922). Kind of test: Antibacterial MIC, broth microdilution (CLSI). Type of test: cell-based. As to conditions: Escherichia coli, ATCC25922; read-out: MIC80 E. coli.
For test [4], the system named is Genomic double stranded DNA (salmon). The test is described as follows: Fluorescence intercalator displacement (FID) assay, SYBR-safe probe. As to conditions: 20 μM compound, 30° C., lower % = stronger binding. The essentials: (§1)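 Probe displacement was measured at 30 °C in 1 mM phosphate pH 7.4 containing SybrSafe (12500-fold dilution), 3.76 ng/mL nucleic acid (salmon dsDNA or polyAU dsRNA) and 20 μM compound. Fluorescence loss is normalised between probe-only and probe-plus-nucleic-acid controls.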

In test [5] the test system is PolyAU double stranded RNA. The test is described as above. As to conditions: 20 μM compound, 30° C., lower % = stronger binding. An outline of the steps: as §1
Test [6] concerns C. neoformans (F10025). As to conditions: Cryptococcus neoformans, read-out: MIC99 C. neoformans.
For test [7], the system named is A. fumigatus A1160 (MFIG001). As to conditions: Aspergillus fumigatus, read-out: MIC99 A. fumigatus A1160.
Test [8] deals with Candida glabrata (ACPF3309). As to conditions: Nakaseomyces glabratus, read-out: MIC99 Candida glabrata.
Method: The Minimum Inhibitory Concentration (MIC, at 99% inhibition) of the compounds was determined using the broth microdilution method as recommended by EUCAST (EUCAST Definitive Document E.DEF 9.3.2, Method for the determination of broth dilution minimum inhibitory concentrations of antifungal agents for conidia forming moulds and EUCAST Definitive Document E.DEF 7.3.2 Method for the determination of broth dilution minimum inhibitory concentrations of antifungal agents for yeasts).
For test [9], the system named is T. vaginalis. The test is described as follows: Trichomonas resorufin assay. Type of test: cell-based. To be noted: Trichomonas vaginalis, read-out: IC50 T. vaginalis.

With `CN(C)CCCN(CCCN(C)C)C(=O)c1cc(NC(=O)c2cc(NC(=O)c3ccc(/C=C/c4cnc5ccccc5c4)cc3)cn2C)cn1C` [IVa9, (E)-N,N-bis(3-(dimethylamino)propyl)-1-methyl-4-(1-methyl-4-(4-(2-(quinolin-3-yl)vinyl)benzamido)-1H-pyrrole-2-carboxamido)-1H-pyrrole-2-carboxamide], the MIC80 is 25 to 100 µM (≈ 17.2 to 68.9 µg/mL) in [1], more than 100 µM in test [2] and more than 100 µM in [3]. Also, in test [4], the “% Normalised Fluorescence with gDNA” value was found to be 3%. The “% Normalised Fluorescence with polyAU RNA” value in test [5] came out at 4%. Besides, the MIC99 is 25 to 50 µg/mL (≈ 36.3 to 72.6 µM) in [6], more than 50 µg/mL in test [7] and 25 to 50 µg/mL (≈ 36.3 to 72.6 µM) in test [8].
Consider `CCNC(=N)CCNC(=O)c1cc(NC(=O)c2cc(NC(=O)c3ccc(/C=C/c4cccc(OC)c4)cc3)cn2C)cn1C` [Ia22, (E)-N-(3-(ethylamino)-3-iminopropyl)-4-(4-(4-(3-methoxystyryl)benzamido)-1-methyl-1H-pyrrole-2-carboxamido)-1-methyl-1H-pyrrole-2-carboxamide], for which the MIC80 in [1] is 5 to 25 µM (≈ 2.98 to 14.9 µg/mL); in [2], less than 5 µM; in test [3], more than 100 µM. Moreover, the “E. faecalis Selectivity Indices, Group” value in test [2] (SI, IC50 (μM)/MIC80 (μM), HEK293 cytotoxicity, Alkyl Amidines and NH Pyrroles) was “C (Group C: 5 < SI <= 10)”. Besides, the IC50 in test [9] lay within 1 to 5 µM. Besides, the “% Normalised Fluorescence with gDNA” value in test [4] is 3%. Also, the “% Normalised Fluorescence with polyAU RNA” value in test [5] is given as 5%. For the same compound, the MIC99 in test [6] is 25 to 50 µg/mL (≈ 42 to 83.9 µM); in test [7] it was more than 50 µg/mL; in test [8], 5 to 25 µg/mL (≈ 8.39 to 42 µM).
Take `CCCCCCC/N=C(\CCNC(=O)c1cc(NC(=O)c2cc(NC(=O)c3ccc(/C=C/c4ccc(N(C)C)cc4)nc3)cn2C)cn1C)NCCCCCCC` [Ia33, 6-((E)-4-(dimethylamino)styryl)-N-(5-((5-(((E)-3-(heptylamino)-3-(heptylimino)propyl)carbamoyl)-1-methyl-1H-pyrrol-3-yl)carbamoyl)-1-methyl-1H-pyrrol-3-yl)nicotinamide]: the values for the MIC80 in test [1], in test [2] and in test [3] were 5 to 25 µM (≈ 3.89 to 19.5 µg/mL), 25 to 100 µM (≈ 19.5 to 77.8 µg/mL) and more than 100 µM, respectively. Further, in test [9], the IC50 lay within 5 to 50 µM. In test [4], the “% Normalised Fluorescence with gDNA” value is reported as 49%. Moreover, the “% Normalised Fluorescence with polyAU RNA” value in [5] is recorded as 24%. Moreover, the results for the MIC99 in test [6], in test [7] and in test [8] were 25 to 50 µg/mL (≈ 32.1 to 64.3 µM), more than 50 µg/mL and more than 50 µg/mL, respectively.
In the case of `CCCCCCCCCNC(=N)CCNC(=O)c1cc(NC(=O)c2cc(NC(=O)c3ccc(/C=C/c4cnc5ccccc5c4)cc3)cn2C)cn1C` [Ia36, (E)-N-(3-imino-3-(nonylamino)propyl)-1-methyl-4-(1-methyl-4-(4-(2-(quinolin-3-yl)vinyl)benzamido)-1H-pyrrole-2-carboxamido)-1H-pyrrole-2-carboxamide], the MIC80 in test [1] was 5 to 25 µM (≈ 3.57 to 17.9 µg/mL); in [2] it was 25 to 100 µM (≈ 17.9 to 71.5 µg/mL); in test [3], more than 100 µM. Moreover, the IC50 in test [9] is 5 to 50 µM. Besides, the “% Normalised Fluorescence with gDNA” value in [4] came out at 11%. Besides, the “% Normalised Fluorescence with polyAU RNA” value in [5] was 4%. Besides, the results for the MIC99 in test [6], in [7] and in test [8] were more than 50 µg/mL, more than 50 µg/mL and 25 to 50 µg/mL (≈ 35 to 69.9 µM), respectively.
Consider `CCCCCCC/N=C(/CCNC(=O)c1cc(NC(=O)c2cc(NC(=O)c3ccc(/C=C/c4cnc5ccccc5c4)cc3)cn2C)cn1C)NCCCCCCC` [Ia37, N—((Z)-3-(heptylamino)-3-(heptylimino)propyl)-1-methyl-4-(1-methyl-4-(4-((E)-2-(quinolin-3-yl)vinyl)benzamido)-1H-pyrrole-2-carboxamido)-1H-pyrrole-2-carboxamide], for which the MIC80 in [1] was 5 to 25 µM (≈ 3.93 to 19.6 µg/mL); in test [2] it was 25 to 100 µM (≈ 19.6 to 78.5 µg/mL); in test [3], more than 100 µM. In addition, in [9], the IC50 fell in the range of 5 to 50 µM. Further, in test [4], the “% Normalised Fluorescence with gDNA” value was 16%. Besides, the “% Normalised Fluorescence with polyAU RNA” value in test [5] was 68%. In addition, the MIC99 in [6] is 25 to 50 µg/mL (≈ 31.8 to 63.7 µM); in [7] it was more than 50 µg/mL; in test [8], more than 50 µg/mL.
Regarding `CCCC/N=C(\CCNC(=O)c1cc(NC(=O)c2cc(NC(=O)c3ccc(/C=C/c4cnc5ccccc5c4)cc3)cn2C)cn1C)NCCCC` [Ia38, N—((E)-3-(butylamino)-3-(butylimino)propyl)-1-methyl-4-(1-methyl-4-(4-((E)-2-(quinolin-3-yl)vinyl)benzamido)-1H-pyrrole-2-carboxamido)-1H-pyrrole-2-carboxamide], the MIC80 in [1] was less than 5 µM; in test [2], 25 to 100 µM (≈ 17.5 to 70.1 µg/mL); in test [3], more than 100 µM. For the same compound, in test [9], the IC50 lay in the range of 5 to 50 µM. Moreover, in test [4], the “% Normalised Fluorescence with gDNA” value is recorded as 10%. Moreover, in test [5], the “% Normalised Fluorescence with polyAU RNA” value worked out at 4%. Moreover, the MIC99 in test [6] was 25 to 50 µg/mL (≈ 35.7 to 71.3 µM); in test [7] it was more than 50 µg/mL; in test [8], 5 to 25 µg/mL (≈ 7.13 to 35.7 µM).
As to `CCCC/N=C(\CCNC(=O)c1cc(NC(=O)c2cc(NC(=O)c3ccc(/C=C/c4ccc(N(C)C)cc4)nc3)cn2C)cn1C)NCCCC` [Ia39, N-(5-((5-(((E)-3-(butylamino)-3-(butylimino)propyl)carbamoyl)-1-methyl-1H-pyrrol-3-yl)carbamoyl)-1-methyl-1H-pyrrol-3-yl)-6-((E)-4-(dimethylamino)styryl)nicotinamide], the values for the MIC80 in test [1], in [2] and in test [3] were less than 5 µM, 25 to 100 µM (≈ 17.3 to 69.4 µg/mL) and more than 100 µM, respectively. Besides, the IC50 in [9] lay in the range of 5 to 50 µM. The “% Normalised Fluorescence with gDNA” value in test [4] was determined as 50%. Also, in test [5], the “% Normalised Fluorescence with polyAU RNA” value was found to be 43%. Besides, the MIC99 is 25 to 50 µg/mL (≈ 36 to 72.1 µM) in [6], more than 50 µg/mL in test [7] and 25 to 50 µg/mL (≈ 36 to 72.1 µM) in test [8].
Consider `Cn1cc(NC(=O)c2cc(NC(=O)c3ccc(/C=C/c4cnc5ccccc5c4)cc3)cn2C)cc1C(=O)NCCC(=N)NCCC1CCOCC1` [Ia44, (E)-N-(3-imino-3-((2-(tetrahydro-2H-pyran-4-yl)ethyl)amino)propyl)-1-methyl-4-(1-methyl-4-(4-(2-(quinolin-3-yl)vinyl)benzamido)-1H-pyrrole-2-carboxamido)-1H-pyrrole-2-carboxamide], for which the figures for the MIC80 in test [1], in test [2] and in [3] were 5 to 25 µM (≈ 3.5 to 17.5 µg/mL), 5 to 25 µM (≈ 3.5 to 17.5 µg/mL) and more than 100 µM, respectively. The IC50 in test [9] is 5 to 50 µM. In test [4], the “% Normalised Fluorescence with gDNA” value amounted to 16%. For the same compound, the “% Normalised Fluorescence with polyAU RNA” value in test [5] worked out at 19%. Moreover, the results for the MIC99 in test [6], in test [7] and in [8] were 25 to 50 µg/mL (≈ 35.7 to 71.3 µM), more than 50 µg/mL and 5 to 25 µg/mL (≈ 7.13 to 35.7 µM), respectively.
Regarding `CCCCCCCCC[N+](C)(C)CCNC(=O)c1cc(NC(=O)c2cc(NC(=O)c3ccc(/C=C/c4cnc5ccccc5c4)cc3)cn2C)cn1C` [Ic8, (E)-N,N-dimethyl-N-(2-(1-methyl-4-(1-methyl-4-(4-(2-(quinolin-3-yl)vinyl)benzamido)-1H-pyrrole-2-carboxamido)-1H-pyrrole-2-carboxamido)ethyl)nonan-1-aminium], in test [1] (SI, IC50 (μM)/MIC80 (μM), HEK293 cytotoxicity, Quaternary ammoniums), the “S. aureus Selectivity Indices, Group” value is recorded as “C (Group C: 5 < SI <= 10)”. Also, the “S. aureus Selectivity Index (SI)” value in test [1] (SI, IC50 (μM)/MIC80 (μM), HEK293 cytotoxicity, numeric value) is listed as 6. Also, the MIC80 in [1] is less than 5 µM; in test [2], more than 100 µM; in [3] it was more than 100 µM. In test [9], the IC50 lay in the range of 5 to 50 µM. Also, the MIC99 in [6] was 25 to 50 µg/mL; in test [7] it was more than 50 µg/mL; in test [8], 5 to 25 µg/mL.
In the case of `CCCCCCCCCCC[N+](C)(C)CCNC(=O)c1cc(NC(=O)c2cc(NC(=O)c3ccc(/C=C/c4cnc5ccccc5c4)cc3)cn2C)cn1C` [Ic10, (E)-N,N-dimethyl-N-(2-(1-methyl-4-(1-methyl-4-(4-(2-(quinolin-3-yl)vinyl)benzamido)-1H-pyrrole-2-carboxamido)-1H-pyrrole-2-carboxamido)ethyl)undecan-1-aminium], the MIC80 in [1] is 5 to 25 µM; in test [2], more than 100 µM; in [3] it was more than 100 µM. Moreover, in test [9], the IC50 fell in the range of 5 to 50 µM. In addition, the MIC99 in test [6] is more than 50 µg/mL; in test [7], more than 50 µg/mL; in test [8], 25 to 50 µg/mL.
Regarding `CCCCCCCCCCCC[N+](C)(C)CCNC(=O)c1cc(NC(=O)c2cc(NC(=O)c3ccc(/C=C/c4cnc5ccccc5c4)cc3)cn2C)cn1C` [Ic11, (E)-N,N-dimethyl-N-(2-(1-methyl-4-(1-methyl-4-(4-(2-(quinolin-3-yl)vinyl)benzamido)-1H-pyrrole-2-carboxamido)-1H-pyrrole-2-carboxamido)ethyl)dodecan-1-aminium], the MIC80 in [1] is 5 to 25 µM; in test [2], 25 to 100 µM; in [3] it was more than 100 µM. Also, the half-maximal inhibitory concentration (IC50) in test [9] lay in the range of 5 to 50 µM. Further, the MIC99 in [6] is more than 50 µg/mL; in [7], more than 50 µg/mL; in test [8], 5 to 25 µg/mL.

As usually defined, the MIC80 is an inhibitory concentration at the 80% level, which refers to growth in some studies and to a panel of isolates in others. Broadly, the MIC99 is the lowest concentration that inhibits either 99% of growth or 99% of the strains tested, depending on the study. A word on the IC50: it is the midpoint of a concentration-inhibition curve.
